“Also recorded” adds a separate entry of the source. Structures can show the parent of a compound that is named as a salt.
Tests used:
[1] = target: T1, β2-adrenoreceptor (Cavia porcellus, UniProt Q8K4Z4); test: In vitro bioassay for β2-adrenergic activity (relaxation of precontracted tracheal rings); format: biochemical; conditions: guinea pig tracheal rings precontracted with carbachol, 37° C., pH=7.4, read-out: β2 (trachea)
T1 construct: the trachea was gently excised and placed in ice-cold aerated Krebs Ringer solution; from tissue; host or cells: guinea pig tracheal rings
Procedure: (§1) In Vitro Bioassays for β1 -, β2 - and α-Adrenoreceptor Activity
(§2) Functional evaluation of β1 -, β2 - and α-adrenoreceptor activity was performed using in vitro preparations of guinea pig atria, guinea pig trachea, and rabbit aorta, respectively (Young, et. al, Drug Dev. Res. 1994, 32, 19-28).
For the tracheal assay of β2 -adrenergic activity, male Hartley guinea pigs (350-500 g) were sacrificed by carbon dioxide inhalation and the trachea was gently excised and placed in ice-cold aerated Krebs Ringer solution. β2 -adrenergic activity was assessed as the relaxation of rings following precontraction with carbachol. The trachea were cut into transverse rings containing two cartilage segments, and sutures were tied onto the cartilage on either side of the band of smooth muscle of each ring. The sutures were used to mount the individual rings in a 2.5-ml organ bath and to measure tension with an isometric force transducer. The water-jacketed organ baths maintained the preparation at 37° C. and were filled with Krebs Ringer solution aerated with 95% O2 and 5% CO2. The tracheal rings were equilibrated for 1 h following the application of 0.5 g resting tension. In some cases, equilibrated rings were then treated with the α2 -antagonist rauwolscine ([…]) and the β1 -antagonist atenolol ([…]) prior to precontraction with carbachol ([…]). Precontracted rings used as controls received treatments of saline only. Concentration-response curves were obtained by cumulative addition of drug to the organ bath, the concentration being increased only after the maximal relaxation to the preceding concentration was attained. After the final response was attained, isoproterenol ([…]) was added to assess maximal response for each preparation.
(§3) In all experiments, tension was measured by isometric force transducers (52-9529, Harvard Apparatus, Natick, Mass.) coupled to an ink-writing recorder (Gould, Cleveland Ohio). The Krebs Ringer solution contained the following ingredients (mM): NaCl (118.1), NaHCO3 (25.0), D-glucose (11.1), KH2 PO4 (1.2), KCl (4.8), MgSO4 (1.2), CaCl2 (2.5), pH=7.4.

[2] = target: α-adrenoreceptor; test: In vitro bioassay for α-adrenergic activity (contraction of aortic rings); format: biochemical; conditions: rabbit aortic rings, propranolol pretreated, 37° C., pH=7.4, read-out: α (aorta)
Procedure: as §1, §2
For evaluation of α-adrenergic activity, male New Zealand white rabbits (2.5 kg) (Simunek Rabbitry, Vista, Calif.) were sacrificed by carbon dioxide inhalation and the thoracic aorta was quickly excised and placed in Krebs Ringer solution. The aorta was cut into 3-mm rings which were subsequently suspended on hooks in organ baths. The 2.5-ml water-jacketed baths were maintained at 37° C. and filled with Krebs Ringer solution aerated with 95% O2 and 5% CO2. The vascular rings were equilibrated for 1 h following the application of a resting tension of 4 g, during which time the buffer was changed at 15-min intervals. All rings were pretreated with propranolol ([…]) 10 min prior to addition of test compounds. Concentration-response curves were obtained by cumulative addition of compound to the organ bath, the concentration being increased only after maximal response to the preceding concentration was attained. After the final response was attained for each test drug, norepinephrine ([…]) was added to assess maximal contraction. Responses are expressed as a percent of the maximal contraction by norepinephrine.
as §3

[3] = target: T2, β1-adrenoreceptor (Cavia porcellus, UniProt H0W3H1); test: In vitro bioassay for β1-adrenergic activity (atrial rate); format: biochemical; conditions: guinea pig atria, 37° C., pH=7.4, approximately four atrial preparations per compound
T2 construct: the hearts were excised and placed in ice-cold oxygenated Krebs Ringer buffer; tissue Charles River Laboratories (animals); host or cells: guinea pig atria (right and left, paired)
Procedure: as §1, §2
For the atrial assay of β1 -adrenergic activity, male Hartley guinea pigs (350-500 g; Charles River Laboratories, Wilmington, Mass.) were sacrificed by decapitation and the hearts were excised and placed in ice-cold oxygenated Krebs Ringer buffer. The atria were separated from the ventricles, leaving the right and left atria attached as a pair. A suture was placed at the apex of each atrial appendage for securing the tissue within the organ bath. The water-jacketed 25-ml organ baths were maintained at 37° C. and filled with Krebs Ringer solution aerated with 95% O2 and 5% CO2. The atrial pairs were equilibrated for at least 20 min after application of 1 g resting tension. β1 -adrenergic activity was assessed using atrial rate (beats per min) and amplitude of contraction (g tension) which were monitored at 1 and 5 min after dosing. Concentration-response curves (10^-11 -10^-4 M) were obtained by cumulative addition of drug to the bath. Following the completion of the dose response curves, isoproterenol was added to assess maximal response of each atrial preparation. EC50 values were calculated from the rate results of approximately four atrial preparations per compound.
as §3

[4] = tested on: heart rate; test: Pharmacodynamics in conscious dogs during transdermal iontophoretic administration; format: in vivo, dog; conditions: 10 min
Procedure: Pharmacodynamics in conscious dogs during transdermal iontophoretic administration
Dogs were trained to lie quietly on a table. Heart rate was monitored by ECG limb leads. Novel catecholamines were administered from a gel-filled electrode placed on the surface of the skin. A second electrode was placed on the skin to complete the electrical circuit. All compounds were delivered using a current of 0.25 mA for a period of 10 minutes. Heart rate was monitored by the ECG, and the T50 of the compound was measured as the time after termination of current required for heart rate to return 50% toward baseline rate. A "delay" time was also measured as the time required for heart rate to begin to fall, following termination of current.

[5] = tested on: heart rate (chronotropic response); test: Pharmacodynamics in conscious dogs during i.v. administration (chronotropic response and offset); format: in vivo, dog
Procedure: […] The T50 s were measured from end of infusion.
Pharmacodynamics in conscious dogs during i.v. administration
Dogs were trained to lie quietly on a table. Novel catecholamine compounds were administered via a venous catheter acutely placed in a leg vein. […] Heart rate was recorded by computer from ECG limb leads at 5 second intervals throughout the experiment. […]

[6] = iontophoresis 0.25 mA, concentration (mM): isoproterenol 2.5, arbutamine 20, Ex 4 2, Ex 1 3, Ex 11 12, Ex 9 8, Ex 6 8
[7] = Example 13, i.v., dose reached 300 ng/kg/min
[8] = Example 13, i.v. stepwise ascending doses up to 100 ng/kg/min
[9] = Example 13, i.v., from termination of infusion (100 ng/kg/min) to 50% fall in heart rate towards baseline
[10] = Table I, i.v., measured from end of infusion at highest dose 100 ng/kg/min
[11] = Table I, stable increase over baseline at highest dose (100 ng/kg/min i.v.), ascending doses

T1 sequence (Q8K4Z4 whole entry): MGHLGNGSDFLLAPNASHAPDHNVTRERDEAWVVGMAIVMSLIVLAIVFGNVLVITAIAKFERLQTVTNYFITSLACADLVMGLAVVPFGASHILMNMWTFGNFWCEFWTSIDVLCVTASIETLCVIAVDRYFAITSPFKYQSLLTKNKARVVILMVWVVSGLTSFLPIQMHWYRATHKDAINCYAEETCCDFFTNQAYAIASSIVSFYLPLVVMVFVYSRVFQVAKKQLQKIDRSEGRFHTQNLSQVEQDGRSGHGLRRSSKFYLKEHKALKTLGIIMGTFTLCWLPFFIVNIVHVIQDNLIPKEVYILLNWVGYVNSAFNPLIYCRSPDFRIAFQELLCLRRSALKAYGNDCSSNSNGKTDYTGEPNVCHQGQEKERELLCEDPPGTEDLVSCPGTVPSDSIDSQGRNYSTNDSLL
T2 sequence (H0W3H1 1-470): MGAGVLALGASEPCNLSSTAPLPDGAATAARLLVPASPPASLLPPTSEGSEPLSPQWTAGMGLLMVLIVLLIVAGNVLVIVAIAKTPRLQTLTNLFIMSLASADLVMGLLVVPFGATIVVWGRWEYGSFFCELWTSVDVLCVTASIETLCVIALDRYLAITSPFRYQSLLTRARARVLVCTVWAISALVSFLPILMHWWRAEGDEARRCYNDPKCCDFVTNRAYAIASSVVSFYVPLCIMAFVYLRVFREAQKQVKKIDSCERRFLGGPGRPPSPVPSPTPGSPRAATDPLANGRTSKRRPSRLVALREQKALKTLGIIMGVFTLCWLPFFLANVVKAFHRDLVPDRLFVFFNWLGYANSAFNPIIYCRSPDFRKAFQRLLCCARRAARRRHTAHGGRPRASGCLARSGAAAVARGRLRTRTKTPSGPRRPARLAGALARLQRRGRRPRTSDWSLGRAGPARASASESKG

C[S+]([O-])CCCCNC[C@H](O)c1ccc(O)c(O)c1 (stereo partly drawn) [Example 7, 1-(R)-(3,4-dihydroxyphenyl)-2-(4-methylsulfinylbutylamino)ethanol]
EC50 [1]: 245 ± 84.7 nM | EC50 [2]: 5.5 ± 0.456 µM | EC50 [3]: 13.3 ± 1 nM

CSCCCCNC[C@H](O)c1ccc(O)c(O)c1 [Example 9, 1-(R)-(3,4-dihydroxyphenyl)-2-(4-methylthiobutylamino)ethanol]
EC50 [1]: 20 ± 3.4 nM | Delay (time required for heart rate to begin to fall following termination of current) [4, 6]: 0.6 ± 0.6 min | T50 (time after termination of current for heart rate to return 50% toward baseline) [4, 6]: 9.3 ± 0.5 min | Δ Heart Rate [4, 6]: 82 ± 9 beats/min | T50 [5, 7]: 3.6 ± 0.34 min | Δ Heart Rate [5, 7]: 93 ± 6 | EC50 [2]: 1.4 ± 0.082 µM | EC50 [3]: 2.9 ± 0.6 nM

CCSCCCNC[C@H](O)c1ccc(O)c(O)c1 [Example 10, 1-(R)-(3,4-dihydroxyphenyl)-2-(3-ethylthiopropylamino)ethanol]
EC50 [1]: 124 ± 13.6 nM | EC50 [2]: > 10 µM | EC50 [3]: 4.8 ± 0.7 nM

COCCCC(C)NC[C@H](O)c1ccc(O)c(O)c1 (stereo partly drawn) [Example 5, 1-(R)-(3,4-dihydroxyphenyl)-2-(1-methyl-4-methoxybutylamino)ethanol]
EC50 [1]: 8.2 ± 1.6 nM | EC50 [2]: 51.8 ± 19.2 µM | EC50 [3]: 1.5 ± 0.4 nM

CC(CCCC#N)NC[C@H](O)c1ccc(O)c(O)c1 (stereo partly drawn) [Example 2, 1-(R)-(3,4-dihydroxyphenyl)-2-(1-methyl-4-cyanobutylamino)ethanol]
EC50 [1]: 2.7 ± 0.5 nM | EC50 [2]: 15.6 ± 8.22 µM | EC50 [3]: 3.4 ± 0.4 nM

C[S+]([O-])CCCNC[C@H](O)c1ccc(O)c(O)c1 (stereo partly drawn) [Example 6, 1-(R)-(3,4-dihydroxyphenyl)-2-(3-methylsulfinylpropylamino)ethanol]
EC50 [1]: 140 ± 35.3 nM | Delay (time required for heart rate to begin to fall following termination of current) [4, 6]: 0.9 ± 0.5 min | T50 (time after termination of current for heart rate to return 50% toward baseline) [4, 6]: 13.6 ± 2.3 min | Δ Heart Rate [4, 6]: 93 ± 6 beats/min | Δ Heart Rate [5, 8]: 93 ± 3 | T50 [5, 9]: 5.4 ± 1.3 min | EC50 [2]: > 10 µM | EC50 [3]: 14.9 ± 3.6 nM

Oc1ccc(CCCCNC[C@H](O)c2ccc(O)c(O)c2)cc1 [Arbutamine, reference compound]
Delay (time required for heart rate to begin to fall following termination of current) [4, 6]: 2.3 ± 1.4 min | T50 (time after termination of current for heart rate to return 50% toward baseline) [4, 6]: 24.8 ± 2.7 min | Δ Heart Rate [4, 6]: 84 ± 5 beats/min | T50 [5, 10]: 7.2 ± 1.1 min | Δ Heart Rate [5, 11]: 84 ± 9 beats/min

CC(C)NCC(O)c1ccc(O)c(O)c1 (centres unmarked) [Isoproterenol, reference compound]
Delay (time required for heart rate to begin to fall following termination of current) [4, 6]: 1.2 ± 0.5 min | T50 (time after termination of current for heart rate to return 50% toward baseline) [4, 6]: 12.2 ± 1.9 min | Δ Heart Rate [4, 6]: 80 ± 11 beats/min | T50 [5, 10]: 5.5 ± 1.0 min | Δ Heart Rate [5, 11]: 103 ± 12 beats/min

COCCCNC[C@H](O)c1ccc(O)c(O)c1 [Example 3, 1-(R)-(3,4-dihydroxyphenyl)-2-(3-methoxy-propylamino)ethanol]
EC50 [1]: 21 ± 3 nM | EC50 [2]: 61.3 ± 3.82 µM | EC50 [3]: 19 ± 5.4 nM

COCCC(C)NC[C@H](O)c1ccc(O)c(O)c1 (stereo partly drawn) [Example 4, 1-(R)-(3,4-dihydroxyphenyl)-2-(1-methyl-3-methoxypropylamino)ethanol]
EC50 [1]: 9.9 ± 1.3 nM | Delay (time required for heart rate to begin to fall following termination of current) [4, 6]: 0.3 ± 0.1 min | T50 (time after termination of current for heart rate to return 50% toward baseline) [4, 6]: 9.1 ± 0.8 min | Δ Heart Rate [4, 6]: 79 ± 8 beats/min | Δ Heart Rate [5, 8]: 98 ± 8 | T50 [5, 9]: 5.0 ± 0.7 min | EC50 [2]: > 100 µM | EC50 [3]: 1.1 ± 0.2 nM

CC(CCC[S+](C)[O-])NC[C@H](O)c1ccc(O)c(O)c1 (stereo partly drawn) [*, 1 (R)(3,4-dihyroxyphenyl)-2-(1-methyl-4-methylsulfinylbutylamino) ethano oxalate salt]
EC50 [2]: 7.83 ± 0.239 µM | EC50 [3]: 1.4 ± 0.3 nM

N#CCCCNC[C@H](O)c1ccc(O)c(O)c1 [Example 1, 1-(R)-(3,4-dihydroxyphenyl)-2-(3-cyanopropylamino)ethanol]
EC50 [1]: 4.7 ± 1.2 nM | Δ Heart Rate [4]: 77 ± 1.3 beats/min | Delay (time required for heart rate to begin to fall following termination of current) [4, 6]: 1.9 ± 0.5 min | T50 (time after termination of current for heart rate to return 50% toward baseline) [4, 6]: 12.4 ± 1.3 min | Δ Heart Rate [5, 8]: 109 ± 5 | T50 [5, 9]: 6.9 ± 0.6 min | EC50 [2]: 7.5 ± 2.84 µM | EC50 [3]: 4.6 ± 0.7 nM

CSCCCC(C)NC[C@H](O)c1ccc(O)c(O)c1 (stereo partly drawn) [Example 8, 1-(R)-(3,4-dihydroxyphenyl)-2-(1-methyl-4-methylthiobutylamino)ethanol]
EC50 [1]: 4.6 ± 0.2 nM | EC50 [2]: 20.9 ± 9.85 µM | EC50 [3]: 0.6 ± 0.3 nM

CSCCCNC[C@H](O)c1ccc(O)c(O)c1 [Example 11, 1-(R)-(3,4-dihydroxyphenyl)-2-(3-methylthiopropylamino)ethanol]
EC50 [1]: 16 ± 1.2 nM | Delay (time required for heart rate to begin to fall following termination of current) [4, 6]: 0.8 ± 0.2 min | T50 (time after termination of current for heart rate to return 50% toward baseline) [4, 6]: 12.7 ± 3.6 min | Δ Heart Rate [4, 6]: 89 ± 7 beats/min | Δ Heart Rate [5, 8]: 109 ± 4 | T50 [5, 9]: 3.6 ± 0.2 min | T50 [5, 10]: 3.6 ± 0.3 min | Δ Heart Rate [5, 11]: 109 ± 4 beats/min | offset time / T50 (in words) ([5]; i.v., compared with isoproterenol and arbutamine): shorter than for both isoproterenol and arbutamine; also recorded: substantially shorter T50 than isoproterenol and arbutamine | T50 (time required for the chronotropic response to decrease by 50%) ([5]; oxalate salt, dog studies): 3.6 min | EC50 [2]: 88.3 ± 5.66 µM | EC50 [3]: 9.7 ± 2 nM

From patent publication US5775329A, “Method and compounds for diagnosing coronary artery disease” (Gensia, Inc., priority 1995, dated 1998)
